Results from PMC10004487, “Flavonoids from the Roots of Sophora flavescens and Their Potential Anti-Inflammatory and Antiproliferative Activities” (Molecules, 2023).
Structures can show the parent of a compound that is named as a salt. Where two headings read alike, the source gives them in different places.

Legend:
HepG2 cells = experiment: Antiproliferative MTT assay on HepG2 cell lines; format: cell-based, Human; conditions: read-out: IC50 (50% inhibitory concentration), antiproliferative effect, 24 and 48 h of incubation, mean ± SD of 3 tests
Protocol: Inhibitory rate (%) = [(O.DDrug − O.DBlank)/(O.DControl − O.DBlank)] ×100%. The IC50 values were calculated with probit analysis using software SPSS version 21.0.
(§1) Murine macrophages (RAW 264.7) were cultured in Dulbecco’s modified Eagle’s medium (DMEM) supplemented with the addition of 10% fetal bovine serum (FBS) and 1% streptomycin (10,000 μg/mL)-penicillin (10,000 U/mL) at 37 °C in a humidified incubator under 5% CO2. HepG2 cells were cultured at 37 °C under 5% CO2. The optimal fermentation culture medium comprised DMEM, 1% mixed penicillin (10,000 U mL^−1), 1% HEPES (BioFroxx, Hesse, Einhausen), and 10% fetal bovine serum (FBS), as well as streptomycin (SM) (10,000 μg/mL^−1) fluid. In all experiments, cells were left to acclimate for 24 h before any treatments.
Briefly, the cells were incubated in 96-well microplates (1 × 10^5 per well) and allowed to adhere for 24 h before drug administration. Then, the cell lines were treated with test compounds 1–36 at five concentrations (3.12, 6.25, 12.5, 25, and 50 μM). At 24 and 48 h of incubation, cells were treated with MTT (200 µL, 5.0 mg/mL) and dissolved in the culture medium, for 1 h under at 37 °C under a 5% CO2 humidified atmosphere. The MTT was then removed carefully and resolved with DMSO (150 μL/well). Optical density was recorded using a Thermo Fisher Scientific microplate reader at 490 nm. Cisplatin (CP) and medium were used as positive and negative controls, respectively.

[1] = Cytotoxicity on RAW 264.7 macrophages (MTT cell viability); format: cell-based, Murine; conditions: mouse
Protocol: The potential cytotoxicity of compounds on RAW 264.7 macrophages cells was determined before executing further studies. Macrophage cells were treated with compounds, and a mitochondria colorimetric (MTT) assay was used to test cell survival.
as §1
To measure cell viability, an MTT assay was performed. […] After washing twice with a PBS buffer, 20 μL of the MTT solution was added to each well, and incubation continued for 4 h. Optical density (O.D) was measured at 490 nm by a microplate reader (Thermo Fisher Scientific, Waltham, MA, USA). The relative cell viability was calculated in contrast to the normal control group.

[2] = test system: LPS-induced NO production in RAW 264.7 macrophages; experiment: Inhibition of LPS-induced NO production in macrophages (Griess reagent); format: cell-based, Murine; conditions: Mus musculus, RAW264.7, read-out: IC50 (50% inhibitory concentration), NO production inhibition
Protocol: NO is one of the immune effectors used by macrophages to defend our bodies against intracellular pathogens. […] NO production inhibition (%) = [(O.DLPS − O.DDrug)/(O.DLPS − O.DBlank)] × 100%. The determination of IC50 was calculated using probit analysis in SPSS version 21.0.
as §1
Activated macrophage cells could express inducible nitric oxide synthase (iNOS), catalyzing the production of NO from L-arginine. […] Afterward, costimulation for 24 h at 37 °C was carried out in an incubator under 5% CO2. Then, Griess reagents I and II (100 μL) were mixed with cell culture medium (70 μL). Prior to measuring the optical density, plates were incubated at room temperature for 10 min, and the absorbance at 540 nm was measured using a Thermo Fisher Scientific microplate reader. N(G)-monomethyl-L-arginine, monoacetate salt (L-NMMA), and the medium were used as positive and negative controls, respectively.

[3] = RAW 264.7 pretreated with compound 1 h, then LPS 1 μg/mL for 24 h, Griess, mean ± SD of 3 tests

| Compound | IC50 (HepG2 cells; Homo sapiens) [µM] | IC50 [2, 3] [µM] | CC50 [1] [µM] | also measured |
| --- | --- | --- | --- | --- |
| N.N.[Cl][Pt][Cl] [Cisplatin, reference compound] |  |  |  | IC50 (HepG2 cells): 24.5 ± 0.8 µM |
| COc1cc(O)c(CC=C(C)C)c2c1C(=O)CC(c1ccc(O)cc1)O2 (stereo not shown) [Compound 2, isoxanthohumol] |  | 8.4 ± 0.7 | > 50 |  |
| CC(C)=CCc1c(O)cc(O)c2c1O[C@H](c1ccc(O)cc1O)CC2=O [Compound 5, leachianone G] | 37.6 ± 0.7 |  |  |  |
| C=C(C)[C@H](CC=C(C)C)Cc1c(O)cc(OC)c2c1O[C@H](c1ccc(O)cc1O)CC2=O [Compound 13, kurarinone] |  | 14.4 ± 0.4 | 33.8 ± 1 |  |
| C=C(C)C(CC=C(C)C)Cc1c(O)c(CC=C(C)C)c(O)c2c1O[C@H](c1ccc(O)cc1O)CC2=O (stereo partly shown) [Compound 16, kushenol B] | 30.8 ± 1.1 |  |  |  |
| CC(C)=CCc1c(O)cc(O)c2c(=O)c(O)c(-c3ccc(O)cc3)oc12 [Compound 19, noranhyoicaritin] | 41.4 ± 0.6 | 12.4 ± 0.9 | > 50 |  |
| C=C(C)C(CC=C(C)C)Cc1c(O)cc(O)c2c(=O)c(O)c(-c3ccc(O)cc3)oc12 (stereo not shown) [Compound 22, 8-lavandulylkaempferol] | 0.46 ± 0.1 | 5.7 ± 0.4 | 13.8 ± 0.6 |  |
| [H]/N=C(/NC)NCCC[C@H](N)C(=O)O [L-NMMA, N(G)-monomethyl-L-arginine, monoacetate salt, reference compound] |  |  |  | CC50 ([1]; RAW 264.7 macrophages, MTT, compound 1 h then LPS 1 μg/mL 24 h, mean ± SD of 3 tests): > 50 µM; IC50 [2]: 21.8 ± 0.9 µM |
| xanthogalenol [Compound 34] |  |  |  | IC50 (HepG2 cells): 48.6 ± 0.8 µM |

Now from value to compound, other results behind:

| IC50 (HepG2 cells; Homo sapiens) [µM] | IC50 [2, 3] [µM] | Compound | CC50 [1] [µM] | also measured |
| --- | --- | --- | --- | --- |
| 34.9 ± 0.3 |  | CC(C)=CCc1c(O)cc(O)c2c1O[C@H](c1ccc(O)cc1)CC2=O [Compound 1, sophorafiavanone B] |  |  |
|  | 9.3 ± 0.7 | CC(C)=CCc1c(O)c(CC=C(C)C)c2c(c1O)C(=O)C[C@@H](c1ccc(O)cc1O)O2 [Compound 15, kushenol E] | 18.8 ± 0.3 |  |
| 26.4 ± 0.3 |  | COc1ccc(-c2oc3c(CC=C(C)C)c(O)cc(O)c3c(=O)c2O)cc1O [Compound 21, 8-(3,3-dimethylallyl)-tamarixetin] |  |  |
|  | 7.2 ± 0.6 | C=C(C)[C@H](CC=C(C)C)Cc1c(O)cc(OC)c2c1O[C@H](c1ccc(O)cc1O)[C@@H](O)C2=O [Compound 29, kushenol I] | 20.6 ± 1.1 |  |
